Results on seven compounds are retold here after ChEMBL document CHEMBL1201862, “PubChem BioAssay data set” (2004).

Some test systems named below: PC-3; NCI/ADR-RES; SF-539; SR; MDA-MB-231; DU-145; HCT-116; HT-29; T47D; NCI-H522; NCI-H23; OVCAR-8; MDA-N; HOP-62; K562; HCT-15; SNB-19; HOP-92; SK-MEL-28; KM12.
Experiment in all cases: NCI anticancer screen, dose series, 48 h

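Five compound concentrations were applied to cells in 96-well plates for 48 hours; endpoints were derived by simple linear interpolation of the resulting dose-response curve. GI50 is the concentration that inhibits growth by half.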 Active and inactive are the calls of the source. No stated cut-off is given here; in the data, active = GI50 up to about 1.1 µM and inactive = higher. Where only a bound is given, the exact number is not on record here.

Take `Cn1cc(-c2cnc(-c3cn(C)c4ccccc34)cn2)c2ccccc21`: the GI50 in the assay with PC-3 was 3.73 µM (inactive); in the assay with NCI/ADR-RES, 2.96 µM (inactive); in the assay on SF-539 it was 3.37 µM (inactive); in the assay on SR, 3.09 µM (inactive); with MDA-MB-231, 15 µM (inactive); in the assay on DU-145 it was 5.27 µM (inactive). Moreover, the GI50 in the assay with HCT-116 was 3.4 µM (inactive); with HT-29 it was 4.78 µM (inactive); in the assay with T47D it was 44.8 µM (inactive); in the assay with NCI-H522 it was 1.51 µM (inactive); in the assay on NCI-H23, 4.25 µM (inactive); with OVCAR-8, 4.89 µM (inactive). Moreover, the GI50 in the assay with MDA-N is 0.767 µM (active); in the assay with HOP-62 it was 6.59 µM (inactive); with K562, 3.8 µM (inactive); with HCT-15, 0.187 µM; with SNB-19 it was 4.71 µM (inactive); in the assay with HOP-92, 12.9 µM (inactive). Besides, the GI50 with SK-MEL-28 is 6.37 µM (inactive); with KM12, 0.0471 µM (active).
`CCS(=O)(=O)CCn1cnc2c1c(=O)n(C)c(=O)n2C`: the GI50 with PC-3 was > 100 µM (inactive); in the assay with NCI/ADR-RES it was > 100 µM (inactive); in the assay on SF-539, > 100 µM (inactive); in the assay with SR, 0.0318 µM (active); in the assay on MDA-MB-231 it was > 100 µM (inactive); in the assay on DU-145, > 100 µM (inactive). The GI50 in the assay with HCT-116, in the assay on HT-29, in the assay with T47D, with NCI-H522, in the assay with NCI-H23 and in the assay on OVCAR-8 was > 100 µM (inactive) in each case. The GI50 in the assay with MDA-N was > 100 µM (inactive); in the assay on HOP-62 it was > 100 µM (inactive); in the assay on K562, > 100 µM (inactive); in the assay on HCT-15 it was over 100 µM; with SNB-19, > 100 µM (inactive); in the assay on HOP-92, > 100 µM (inactive). Further, the GI50 in the assay with SK-MEL-28 and with KM12 was > 100 µM (inactive) throughout.
Consider `COC(=O)[C@@H]1CCCN1CCN1CCC[C@H]1C(=O)OC`, for which the GI50 is > 100 µM (inactive) in the assay with PC-3; > 100 µM (inactive) with NCI/ADR-RES; > 100 µM (inactive) in the assay on SF-539; 31.8 µM (inactive) with SR; > 100 µM (inactive) in the assay on MDA-MB-231; > 100 µM (inactive) in the assay on DU-145. Moreover, the GI50 in the assay with HCT-116, in the assay with HT-29, in the assay on T47D, in the assay with NCI-H522, in the assay with NCI-H23 and in the assay on OVCAR-8 was > 100 µM (inactive) in each case. The GI50 in the assay on MDA-N was > 100 µM (inactive); with HOP-62, > 100 µM (inactive); in the assay on K562, > 100 µM (inactive); in the assay with HCT-15 it was over 100 µM; in the assay with SNB-19 it was > 100 µM (inactive); in the assay with HOP-92, > 100 µM (inactive). For the same compound, the GI50 with SK-MEL-28 and in the assay on KM12 was > 100 µM (inactive) each time.
In the case of `C[C@@]12C[C@@H](c3ccccc3O1)N1Cc3ccccc3CSC1=N2`, the GI50 was 83.6 µM (inactive) in the assay on PC-3; > 100 µM (inactive) in the assay with NCI/ADR-RES; 51.5 µM (inactive) in the assay with SF-539; > 100 µM (inactive) with SR; > 100 µM (inactive) in the assay on MDA-MB-231; 69.3 µM (inactive) in the assay with DU-145. For the same compound, the GI50 with HCT-116 is 49.7 µM (inactive); with HT-29 it was 38.3 µM (inactive); in the assay on T47D it was 72.9 µM (inactive); with NCI-H522, 49.7 µM (inactive); in the assay on NCI-H23 it was > 100 µM (inactive); with OVCAR-8 it was > 100 µM (inactive). Also, the GI50 in the assay on MDA-N was 93.5 µM (inactive); with HOP-62 it was > 100 µM (inactive); with K562, 64.9 µM (inactive); with HCT-15, 37.3 µM; with SNB-19, > 100 µM (inactive); with HOP-92, > 100 µM (inactive). Also, the GI50 in the assay with SK-MEL-28 and in the assay with KM12 was > 100 µM (inactive) each time.
As for `COc1cc(-c2c(C#N)c(N)c(C#N)c3c2COc2ccccc2-3)cc(OC)c1OC`, the GI50 is > 25.6 µM (inactive) with PC-3; 42.5 µM (inactive) with NCI/ADR-RES; 5.35 µM (inactive) with SF-539; > 74 µM (inactive) in the assay with SR; 15.1 µM (inactive) with MDA-MB-231; 43.4 µM (inactive) in the assay with DU-145. For the same compound, the GI50 with HCT-116 is > 49.4 µM (inactive); in the assay on HT-29 it was > 30.6 µM (inactive); in the assay on T47D, > 46.9 µM (inactive); with NCI-H522, 84.1 µM (inactive); in the assay with NCI-H23 it was 31.6 µM (inactive); in the assay on OVCAR-8 it was 28.6 µM (inactive). The GI50 was > 100 µM (inactive) in the assay on MDA-N; 7.5 µM (inactive) with HOP-62; > 60.4 µM (inactive) in the assay on K562; over 100 µM in the assay with HCT-15; 13.2 µM (inactive) in the assay on SNB-19; 16.9 µM (inactive) with HOP-92. In addition, the GI50 with SK-MEL-28 and in the assay on KM12 was > 100 µM (inactive) throughout.
For the compound `O=C(CCCN1CCc2[nH]c3cc(F)ccc3c2C1)c1ccc(F)cc1`, the GI50 in the assay on PC-3 was 12.9 µM (inactive); in the assay with NCI/ADR-RES, 14.2 µM (inactive); with SF-539 it was 16.7 µM (inactive); in the assay with SR, 8.49 µM (inactive); with MDA-MB-231, 12.5 µM (inactive); in the assay on DU-145 it was 13.3 µM (inactive). In addition, the GI50 with HCT-116 was 11.8 µM (inactive); in the assay on HT-29, 6.11 µM (inactive); in the assay on T47D, 18.9 µM (inactive); in the assay on NCI-H522 it was 20.7 µM (inactive); with NCI-H23, 14.1 µM (inactive); in the assay with OVCAR-8, 15.1 µM (inactive). The GI50 was 15.7 µM (inactive) in the assay with MDA-N; 16.1 µM (inactive) in the assay on HOP-62; 5.71 µM (inactive) in the assay with K562; 16.8 µM in the assay with HCT-15; > 100 µM (inactive) in the assay with SNB-19; 2.26 µM (inactive) with HOP-92. For the same compound, the GI50 is 20.3 µM (inactive) in the assay on SK-MEL-28 and 13.9 µM (inactive) in the assay with KM12.
For `O=Cc1cc2c(s1)C(=O)c1sccc1C2=O`, the GI50 was 2.08 µM (inactive) with PC-3; 0.188 µM (active) in the assay with NCI/ADR-RES; 0.215 µM (active) with SF-539; 0.303 µM (active) with SR; 0.792 µM (active) in the assay with MDA-MB-231; 0.18 µM (active) in the assay on DU-145. The GI50 is 0.256 µM (active) in the assay with HCT-116; 1.88 µM (inactive) with HT-29; 2.28 µM (inactive) in the assay on T47D; 0.785 µM (active) in the assay with NCI-H522; 0.191 µM (active) in the assay on NCI-H23; 0.338 µM (active) in the assay with OVCAR-8. Moreover, the GI50 is 0.0484 µM (active) in the assay on MDA-N; 1.82 µM (inactive) with HOP-62; 0.541 µM (active) with K562; 0.381 µM with HCT-15; 0.366 µM (active) with SNB-19; 1.46 µM (inactive) in the assay with HOP-92. The GI50 is 0.176 µM (active) in the assay on SK-MEL-28 and 2.68 µM (inactive) with KM12.
